Results: patent US4952580A, “Pesticidal polyhaloalkene derivatives” (priority 1988, dated 1990)
Read-outs that look alike come from different tables or passages of the source.

Legend:
root-knot nematode [1] = test: Residual Root-Knot Nematicidal Activity; format: in vivo, Meloidogyne incognita; details: Table 3a, 5% dust, 5 ppm, read-out: Percent Control
Method: (§1) Compounds of this invention were tested as follows for nematicidal and anthelmintic activity as dust formulations (initial and residual activity) and as acetone/water formulations (systemic activity). The formulations are described above.
The ability of nematicidal compounds of the invention to control root-knot nematode infestations in soil over a period of time after treatment was evaluated. Dust formulations of test compound (5%) were incorporated into soil samples at test compound rates of 5 and 10 ppm. Subsequently, the treated soil samples were inoculated with nematode inoculum at weekly intervals, and Knot Index and Percent Control determined on seedlings planted in the soil samples. Specifically, soil treated with test compound was placed in 7.6 cm diameter fiber pots and stored in a greenhouse. At one, two and four weeks post-treatment, the appropriate number of pots was infested with root-knot nematode eggs and larvae. A cucumber or tomato seedling was planted in each pot and evaluated approximately two weeks after the soil infestation to obtain the test results reported in Tables 3 and 3a appended.

stunt nematode = test: Stunt Nematode Test; format: in vivo
Method: as §1
The procedure was substantially the same as in the […] seedling, with subsequent inoculation of the soil with combined larvae and adult stunt nematodes. The samples were evaulated approximately four weeks after infestation. […] "Percent control" means the difference between average population counts between untreated and treated samples, divided by average population count of untreated sample, multiplied by 100.

root-knot nematode [2] = test: Soil Mobility against root-knot nematode; format: in vivo, Meloidogyne incognita; details: 336 h
Method: as §1
The ability of nematicidal compounds of the invention to move through nematode-infested soil […] infested soil, and subsequently eluting the soil with 15 cm of water (equivalent to 15 cm of rainfall) into a series of two or more pots of untreated, but nematode-infested, soil. Specifically, the pots were 8 cm diameter plastic pots containing a 10 cm^3 layer of sand over a coarse grade filter paper disc. Sufficient soil was placed over the sand to fill the pots, and a second filter paper disc was placed over the soil. Each test compound-treated pot was nested over a series of two or more pots containing untreated, but nematode-infested soil, also containing sand filter paper discs as described for the treated soil pots. Fifteen cm of water was slowly dripped into the top pots and the pots were allowed to drain for 16-18 hours to remove excess water. The top filter of each pot was then removed and the pots were planted with a cucumber or tomato seedling. […] "Knot Index" and "Percent Control" are as defined in the initial root-knot nematode tests above.

[3] = test system: root-knot nematode (Meloidogyne incognita); test: Initial Root-Knot Nematicidal Activity; format: in vivo; details: 336 h, read-out: Percent Control; for pest or weed control at 1.25 ppm: Table 2, Application Rate 1.25 ppm
Method: as §1
The activity against root-knot nematode (Meloidogyne incognita) was determined by incorporating the compound of the invention in nematode infested soil at rates in the range of 10 ppm to 0.078 ppm of compound. Several tomato or cucumber seedlings were planted in the nematode infested soil. Two weeks after planting the test pots were evaluated to ascertain the degree of galling (swelling) on the roots of the plants, indicating the control provided by the test chemical.
The results expressed as precent control (determined by knot index) are set forth as averages in Table 2 (appended). Knot index is a numerical designation assigned at evaluation, having the following meanings:
Percent control is related to knot index as follows:
When the Knot Index is between 0 and 1 it is further subdivided as follows to indicate how close the percent control is to 75% or 100%: […]

lesion nematode = test: Lesion Nematode Test; format: in vivo; details: Table 5; rate 2.5 ppm; read-out: Percent Control
Method: as §1
The procedure was substantially the same as in the stunt nematode test described above except that pea seedlings were used. The results (Table 5 appended) show good control with many of the compounds at the application rates tested as compared with untreated samples (no control). "Percent Control" is defined as follows: [formula]

root-knot nematode [4] = test: Systemic Activity (basipetal, foliar spray) against root-knot nematode; format: in vivo, Meloidogyne incognita; details: 336 h, Table 8, rate 2000 ppm, read-out: Percent Control
Method: as §1
Compounds of the invention were tested for basipetal systemic activity against the root-knot nematode. In this test, tomato plants are grown in 10.2 cm diameter fiber pots containing steam-pasteurized soil mix (50%, soil, 50% sand) until 4-6 true leaves appear. Three of the pots are then placed on a turntable in a spray hood and the plants sprayed with 50 ml of water/acetone solution containing the test compound. The soil surface is covered during the spraying to prevent spraying of the soil. After treatment, the potted plants are placed in a lighted drying chamber. The plants are then grown in a growth chamber at 25° C. for three days and inoculated with a standard nematode culture by incorporating the inoculum into the top cm of soil in the pots. The plants are returned to the growth chamber for about two weeks at which time the pots are allowed to dry until the plants begin to wilt. The roots are shaken free of soil and the degree of galling (swelling) noted as compared to galling of untreated control plants. The results are expressed as Knot Index and Percent Control as defined in the initial root-knot nematode activity tests reported above in Table 2.

Caenorhabditis elegans = test: C. Elegans Nematode Screening Test and Evaluation (in-vitro); details: Caenorhabditis elegans
Method: This in-vitro test using the free-living nematode Caenorhabditis elegans, is a modification of the assay developed by Simpkin and Coles, J. Chem. Tech. […] One milliliter of a test medium consisting of 5 mg ampicillin, 10,000 units of mycostatin and 10 ml of a dense suspension of Escherichia coli per 100 ml of a buffer solution, was pipetted into each well of a 24-well microtiter plate. The candidate nematicide, suspended at the appropriate concentration in dimethylsulfoxide, was added to the wells in […] volumes. Each rate of application was replicated two to three times. After thorough mixing of the contents of each well, 50 to 100 μl of a nematode suspension in a buffer was added so that each well received 10-15 nematodes. After the nematodes were added, the microtiter plates were incubated at 20° C. for 5-6 days.
The effect of the candidate nematicide on the survival and the reproduction of C. elegans was then evaluated by comparison of the level of population developed in the treated wells with that in untreated wells. Specific effects on population development, such as reduced egg hatch or molting disruption, were noted if they were evident.

[5] = 168 h, inoculation 1 week post-treatment
[6] = 336 h, inoculation 2 weeks post-treatment
[7] = 672 h, inoculation 4 weeks post-treatment
[8] = 672 h, Table 4a; rate 5 ppm; read-out: Percent Control
[9] = Table 7a, 5% dust, 5 ppm, MIDDLE container, read-out: Percent Control
[10] = Table 7a, 5% dust, 5 ppm, TOP container, read-out: Percent Control
[11] = read-out: Percent Control, Table 7a, 5% dust, 5 ppm, BOTTOM container
[12] = Table 2, Application Rate 0.312 ppm
[13] = Table 2, Application Rate 0.625 ppm
[14] = Table 2, Application Rate 2.5 ppm
[15] = Table 7a, 5% dust, 5 ppm, BOTTOM container, read-out: Percent Control
[16] = 672 h; Table 4a; rate 5 ppm; read-out: Percent Control

SMILES	pest or weed control at 5 ppm (root-knot nematode [1]; [5])	pest or weed control at 5 ppm (root-knot nematode [1]; [6])	pest or weed control at 5 ppm (root-knot nematode [1]; [7])	pest or weed control at 5 ppm (stunt nematode; [8])	pest or weed control at 5 ppm (root-knot nematode [2]; [9])	pest or weed control at 5 ppm (root-knot nematode [2]; [10])	pest or weed control at 0.312 ppm [3, 12]	pest or weed control at 0.625 ppm [3, 13]	pest or weed control at 1.25 ppm [3]	pest or weed control at 2.5 ppm [3, 14]	pest or weed control at 2.5 ppm (lesion nematode)	pest or weed control at 5 ppm (root-knot nematode [2]; [15])	also measured
CC(C)Sc1nnc(SCCC(F)=C(F)F)s1 [Compound 30, 2-(1-methylethylthio)-5-(3,4,4-trifluoro-3-butenylthio)-1,3,4-thiadiazole]	98%	97%	83%	66%	100%	99%	97%	99%	99%	100%	75%		pest or weed control at 5 ppm (root-knot nematode [2]; [11]): 17%
CC(C)(C)CC(C)(C)Sc1nnc(SCCC(F)=C(F)F)s1 [Compound 12, 2-(1,1,3,3-tetramethylbutylthio)-5-(3,4,4-trifluoro-3-butenylthio)-1,3,4-thiadiazole]								69%	79%	100%			pest or weed control at 2000 ppm (root-knot nematode [4]): 73%; pest or weed control at 2000 ppm (root-knot nematode [4]; foliar): 99%; pest or weed control at 0.313 ppm ([3]; Table 2, Application Rate 0.313 ppm): 8%
FC(F)=C(F)CCSc1nnc(CCc2ccccc2)o1 [Compound 47, 2-(2-phenylethyl)-5-(3,4,4-trifluoro-3-butenylthio)-1,3,4-oxadiazole]	96%	25%	0%	35%	96%	98%			96%	100%	69%	58%	pest or weed control at 0.312 ppm [3]: 95%; pest or weed control at 0.625 ppm [3]: 95%
FC(F)=C(F)CCN=C=S [Compound 6, (3,4,4-trifluoro-3-butenyl) isothiocyanate]													pest or weed control at 5 ppm (stunt nematode; 672 h, Table 4; rate 5 ppm; read-out: Percent Control): 51%; pest or weed control at 2.5 ppm [3]: 38%; pest or weed control at 5 ppm [3]: 78%; pest or weed control at 10 ppm [3]: 100%
FC(F)=C(F)CCSc1nnc(Cc2ccc(Cl)cc2)o1 [Compound 43, 2-(4-chlorophenylmethyl)-5-(3,4,4-trifluoro-3-butenylthio)-1,3,4-oxadiazole]	100%	100%	100%	81%	97%	99%	78%		56%	97%	93%	81%	pest or weed control at 5 ppm (stunt nematode; [16]): 62%; inhibition at 5 ppm (Caenorhabditis elegans; Table 9 screen, 5 ppm, read-out: Percent Inhibition of Reproduction): 100%; mortality at 5 ppm (Caenorhabditis elegans; Table 9 screen, 5 ppm, read-out: Percent Mortality): 25%; mortality at 5 ppm (Caenorhabditis elegans; Table 10 evaluation, 5 ppm, read-out: Percent Mortality): 83%; inhibition at 1.25 ppm (Caenorhabditis elegans; Table 10 evaluation, 1.25 ppm, read-out: Percent Inhibition of Reproduction): 42%; mortality at 1.25 ppm (Caenorhabditis elegans; Table 10 evaluation, 1.25 ppm, read-out: Percent Mortality): 0%; inhibition at 2.5 ppm (Caenorhabditis elegans; Table 10 evaluation, 2.5 ppm, read-out: Percent Inhibition of Reproduction): 100%; mortality at 2.5 ppm (Caenorhabditis elegans; Table 10 evaluation, 2.5 ppm, read-out: Percent Mortality): 67%; pest or weed control at 0.078 ppm ([3]; Table 2, Application Rate 0.078 ppm): 13%; pest or weed control at 0.156 ppm ([3]; Table 2, Application Rate 0.156 ppm): 38%; pest or weed control at 0.5 ppm ([3]; Table 2, Application Rate .5 ppm): 99%
FC(F)=C(F)CCSc1nnc(-c2ccc(Br)cc2)o1 [Compound 49, 2-(4-bromophenyl)-5-(3,4,4-trifluoro-3-butenylthio)-1,3,4-oxadiazole]				58%	71%	99%	98%	100%	100%	100%		8%	
CCCSc1nnc(SCCC(F)=C(F)F)s1 [Compound 29, 2-propylthio-5-(3,4,4-trifluoro-3-butenylthio)-1,3,4-thiadiazole]	100%	98%	81%	56%	81%	98%		99%	99%	99%	68%	50%	pest or weed control at 0.312 ppm [3]: 95%
N#CCCSc1nnc(SCCC(F)=C(F)F)s1 [Compound 28, 2-(2-cyanoethylthio)-5-(3,4,4-trifluoro-3-butenylthio)-1,3,4-thiadiazole]	100%	100%	8%	38%	83%	68%	81%	86%	98%	100%	45%	68%	
FC(F)=C(F)CCSc1nnc(-c2ccc(F)cc2)o1 [Compound 50, 2-(4-fluorophenyl)-5-(3,4,4-trifluoro-3-butenylthio)-1,3,4-oxadiazole]					71%	98%	78%	99%	99%	100%			pest or weed control at 5 ppm (stunt nematode; [16]): 53%; pest or weed control at 5 ppm (root-knot nematode [2]; [11]): 33%
